Data on 21 compounds can be found in the supplement of paper PMC12317010.

Where a name gives a salt, the structure may show the parent alone.

This data set can be described thus: collision cross section in nitrogen (drift tube, single-field); higher = larger gas-phase ion size.
[1] abbreviates: ion type: [M+Na], ion source: ESI, ion mode: Positive.
Where [2] appears, read: ion type: [M-H], ion source: ESI, ion mode: Negative.
[3] abbreviates: ion type: [M+H], ion source: APCI, ion mode: Positive.
Setting [4] is: ion type: [M+H], ion source: ESI, ion mode: Positive.
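Also: chemical standards at 10 µM analysed by drift tube IMS-QTOF MS in about 3.95 torr nitrogen, mean of duplicate injections differing ≤1%, mass error below 10 ppm.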

Regarding `COc1cc(CCC(=O)CC(=O)CCc2ccc(O)c(OC)c2)ccc1O` [Tetrahydrocurcumin], the “collision cross section in nitrogen” value runs as follows: under setting [1], 181.2 Å²; under setting [2], 184.8 Å².

For the compound `CC(C)OP(=O)(CP(=O)(OC(C)C)OC(C)C)OC(C)C` [Tetraisopropyl methylenediphosphonate], the “collision cross section in nitrogen” value is reported as 174.6 Å² under setting [3], 185 Å² under setting [1] and 177.7 Å² under setting [2].

Regarding `CC(C)C(=O)OCC(C)(C)C(O)C(C)C` (stereo not given) [Texanol], under setting [1], the “collision cross section in nitrogen” value amounted to 161.4 Å².

For the compound `Cn1c(=O)c2[nH]cnc2n(C)c1=O` [Theophylline], the “collision cross section in nitrogen” value by setting is: under setting [3], 136.3 Å²; under setting [4], 137.3 Å²; under setting [1], 146.7 Å².

For the compound `c1ccc2[nH]c(-c3cscn3)nc2c1` [Thiabendazole], the “collision cross section in nitrogen” value by setting is: under setting [3], 141.6 Å²; under setting [4], 139.7 Å²; under setting [1], 152.4 Å²; under setting [2], 142 Å².

With `N#C/N=C1\SCCN1Cc1ccc(Cl)nc1` [Thiacloprid], the “collision cross section in nitrogen” value under setting [4] worked out at 159.6 Å², the “collision cross section in nitrogen” value under setting [1] is 174.2 Å² and the “collision cross section in nitrogen” value under setting [2] is given as 154.5 Å².

In the case of `CN1COCN(Cc2cnc(Cl)s2)C1=N[N+](=O)[O-]` [Thiamethoxam], the “collision cross section in nitrogen” value reads like this: under setting [3], 159.9 Å²; under setting [1], 162.1 Å²; under setting [2], 158.3 Å².

With `Cc1ncc(C[n+]2csc(CCO)c2C)c(N)n1` [Thiamine nitrate], the “collision cross section in nitrogen” value (ion source: APCI, ion mode: Positive, ion type: [M]+ (permanent cation)) is reported as 161.5 Å².

Regarding `Cc1ncsc1CCO` [Thiamine thiozole], the “collision cross section in nitrogen” value under setting [3] worked out at 126.1 Å² and the “collision cross section in nitrogen” value under setting [4] was 126.5 Å².

Regarding `Cc1ncc(C[n+]2csc(CCO)c2C)c(N)n1` [Thiamine], where the note is “ion source: ESI, ion mode: Positive, ion type: [M]+ (permanent cation)”, the “collision cross section in nitrogen” value was 162.7 Å².

Take `COC(=O)c1c(C(F)F)nc(C(F)(F)F)c(C2=NCCS2)c1CC(C)C` [Thiazopyr]: the “collision cross section in nitrogen” value was 183.2 Å² under setting [3], 182.1 Å² under setting [4], 192.1 Å² under setting [1] and 182.6 Å² under setting [2].

`O=C(Nc1ccccc1)Nc1cnns1` [Thidiazuron]: the “collision cross section in nitrogen” value by setting is: under setting [3], 148.4 Å²; under setting [4], 147.9 Å².

With `C[CH2][Hg][S]c1ccccc1C(=O)O` [Thimerosal], the “collision cross section in nitrogen” value under setting [2] is on record as 146.9 Å².

With `CSC(C)=NOC(=O)N(C)SN(C)C(=O)ON=C(C)SC` [Thiodicarb], the “collision cross section in nitrogen” value under setting [1] amounted to 190.7 Å².

With `CCOC(=O)NC(=S)Nc1ccccc1NC(=S)NC(=O)OCC` [Thiophanate], the “collision cross section in nitrogen” value reads like this: under setting [3], 187 Å²; under setting [4], 186.6 Å²; under setting [1], 189.6 Å²; (ion type: [M+], ion source: APCI, ion mode: Positive) 187.5 Å².

As to `S=P(N1CC1)(N1CC1)N1CC1` [Thiotepa], the “collision cross section in nitrogen” value runs as follows: under setting [3], 132.5 Å²; under setting [4], 132.5 Å².

On to `O=c1cc[nH]c(=S)[nH]1` [Thiouracil], for which, under setting [2], the “collision cross section in nitrogen” value turned out to be 116.1 Å².

For the compound `Cc1c[nH]c(=O)[nH]c1=O` [Thymine], the “collision cross section in nitrogen” value under setting [2] came out at 121 Å².

As to `Clc1ccccc1CN1CCc2sccc2C1` [Ticlopidine hydrochloride], the “collision cross section in nitrogen” value is, setting by setting: under setting [3], 156.4 Å²; under setting [4], 156.8 Å².

`CC(C)(C)NC[C@H](O)COc1nsnc1N1CCOCC1` [Timolol maleate salt]: the “collision cross section in nitrogen” value under setting [3] came out at 176.1 Å², the “collision cross section in nitrogen” value under setting [4] was found to be 176.5 Å² and the “collision cross section in nitrogen” value under setting [1] is recorded as 172.7 Å².

Take `O=S(=O)(O)c1cc(O)c(O)c(S(=O)(=O)O)c1` [Tiron]: the “collision cross section in nitrogen” value under setting [2] came to 145.8 Å².
